Measured values taken from US6969713B2, “Piperidine and piperazine acetamide derivatives” (AstraZeneca AB, priority 1999, dated 2005).

Structure (SMILES)	melting point
COc1ccc(Cl)cc1S(=O)(=O)N1C2CCC1CN(CC(=O)Nc1ccccc1C)C2	180 to 181 °C
Cc1cccc(C)c1NC(=O)CN1CCN(c2ncnc3sccc23)C(C)C1 (racemic) [Example 1, (±)-N-(2,6-Dimethylphenyl)-2-(3-methyl-4-(thieno[2,3-d]pyrimidin-4-yl)piperazin-1-yl)acetamide]	184 to 185 °C
Cc1c(CO)cccc1NC(=O)CN1C[C@@H](C)N(c2ncnc3sccc23)[C@@H](C)C1 [Example 4, cis-N-[3-Hydroxymethyl-2-methylphenyl]-2-(3,5-dimethyl-4-(thieno[2,3-d]pyrimidin-4-yl)piperazin-1-yl)acetamide]	203 to 204 °C
Cc1ccccc1NC(=O)CN1CC2CCC(C1)N2S(=O)(=O)c1cccc2nsnc12	169 to 170 °C
C[C@@H]1CN(CC(=O)Nc2cccc3cnccc23)C[C@H](C)N1c1ncnc2sccc12 [Example 9, cis-2-(3,5-Dimethyl-4-(thieno[2,3-d]pyrimidin-4-yl)piperazin-1-yl)-N-(isoquinolin-5-yl)acetamide]	213 to 216 °C
Cc1ccccc1NC(=O)CN1CC2CCC(C1)N2S(=O)(=O)c1ccccc1Cl	170 to 171 °C
Cc1ccccc1NC(=O)CN1CC2CCC(C1)N2S(=O)(=O)c1cccc2nonc12	167 to 168 °C
C[C@@H]1CN(CC(=O)Nc2ccccc2Cl)C[C@H](C)N1c1ncnc2c1ncn2C [Example 8, cis-N-(2-Chlorophenyl)-2-[3,5-dimethyl-4-(9-methyl-9H-purin-6yl)piperazin-1-yl]acetamide]	221 to 222 °C
Cc1ccccc1NC(=O)CN1CC2CCC(C1)N2c1ncnc2scc(C)c12	199 to 200 °C
C[C@@H]1CN(CC(=O)Nc2cccc3ncccc23)C[C@H](C)N1c1ncnc2sccc12 [Example 10]	194 to 195 °C
Cc1ccccc1NC(=O)CN1CC2CCC(C1)N2S(=O)(=O)c1ccc(Cl)s1	150 to 152 °C
Cc1ccccc1NC(=O)CN1C[C@@H](C)N(c2ncnc3sccc23)[C@@H](C)C1 [Example 6, cis-2-[3,5-Dimethyl-4-(thieno[2,3-d]pyrimidin-4-yl)piperazin-1-yl]-N-(2-methylphenyl)acetamide]	174 to 175 °C
COc1cccc(S(=O)(=O)N2C3CCC2CN(CC(=O)Nc2ccccc2C)C3)c1	163 to 165 °C
Cc1ccc(NS(C)(=O)=O)cc1NC(=O)CN1CC2CCC(C1)N2c1ncnc2scnc12	145 to 187 °C
Cc1ccccc1NC(=O)CN1CC2CCC(C1)N2S(=O)(=O)c1cccc(C#N)c1	166 to 168 °C
Cc1c(F)cccc1NC(=O)CN1CC2CCC(C1)N2S(=O)(=O)c1ccccc1	168 to 169 °C
O=C1Cc2c(cccc2NC(=O)CN2CC3CCC(C2)N3c2ncnc3sccc23)N1	265 °C (dec.)
Cc1cccc(C)c1NC(=O)CN1C[C@@H](C)N(c2ncnc3sccc23)[C@@H](C)C1 [Example 2, cis-[2-(3,5-Dimethyl-4-(thieno[2,3-d]pyrimidin-4-yl)piperazin-1-yl)]-N-(2,6-dimethylphenyl)acetamide]	186 to 189 °C
CC(=O)Nc1ccc(S(=O)(=O)N2C3CCC2CN(CC(=O)Nc2ccccc2C)C3)cc1	205 to 206 °C
C[C@@H]1CN(CC(=O)Nc2ccccc2Cl)C[C@H](C)N1c1ncnc2sccc12 [Example 7, cis-N-(2-Chlorophenyl)-2-[3,5-dimethyl-4-(thieno[2,3-d]pyrimidin-4-yl)piperazin-1-yl]acetamide]	206 to 207 °C

Further lines, results first:

melting point	Structure (SMILES)
200 °C	C[C@@H]1CN(CC(=O)Nc2nc3ccccc3n2C)C[C@H](C)N1c1ncnc2sccc12 [Example 49, cis-2-(3,5-Dimethyl-4-(thieno[2,3-d]pyrimidin-4-yl)piperazin-1-yl)-N-(1-methyl-1H-benzoimidazol-2-yl)acetamide]
163 to 164 °C	Cc1ccccc1NC(=O)CN1C[C@@H](C)N(S(=O)(=O)c2cccc([N+](=O)[O-])c2)[C@@H](C)C1 [Example 56, cis-N-(2-Methylphenyl)-2-[4-(3-nitrobenzenesulphonyl)-3,5-dimethylpiperazin-1-yl]-acetamide]
102 to 103 °C	Cc1ccccc1NC(=O)CN1C[C@@H](C)N(S(=O)(=O)c2cccc(NS(C)(=O)=O)c2)[C@@H](C)C1 [Example 64, cis-2-[4-(3-Methanesulphonylaminobenzenesulphonyl)-3,5-dimethylpiperazin-1-yl]-N-(2-methylphenyl)acetamide]
206 to 207 °C	C[C@@H]1CN(CC(=O)Nc2nccc3ccccc23)C[C@H](C)N1c1ncnc2sccc12 [Example 14, cis-2-(3,5-Dimethyl-4-(thieno[2,3-d]pyrimidin-4-yl)piperazin-1-yl)-N-(isoquinolin-1-yl)acetamide]
124 to 125 °C	Cc1ccccc1NC(=O)CN1C[C@@H](C)N(S(=O)(=O)c2cccc(C(N)=O)c2)[C@@H](C)C1 [Example 63, cis-2-[4-(3-Aminocarbonylbenzenesulphonyl)-3,5-dimethylpiperazin-1-yl]-N-(2-methylphenyl)acetamide]
90 to 92 °C	Cc1ccccc1NC(=O)CN1C[C@@H](C)N(S(=O)(=O)c2cccc(C(=O)NCCN)c2)[C@@H](C)C1 [Example 71, cis-2-[4-(2-Aminoethylaminocarbonylbenzenesulphonyl)-3,5-dimethylpiperazin-1-yl]-N-(2-methylphenyl)acetamide]
157 to 159 °C	Cc1cccnc1NC(=O)CN1C[C@@H](C)N(c2ncnc3sccc23)[C@@H](C)C1 [Example 13, cis-2-(3,5-Dimethyl-4-(thieno[2,3-d]pyrimidin-4-yl)piperazin-1-yl)-N-(3-methylpyridin-2-yl)acetamide]
202 to 203 °C	Cc1ccccc1NC(=O)CN1C[C@@H](C)N(S(=O)(=O)c2cccc(N)c2)[C@@H](C)C1 [Example 57, cis-2-[4-(3-Aminobenzenesulphonyl)-3,5-dimethylpiperazin-1-yl]-N-(2-methylphenyl)acetamide]
152 to 153 °C	Cc1ccccc1NC(=O)CN1C[C@@H](C)N(S(=O)(=O)c2cccc(C#N)c2)[C@@H](C)C1 [Example 55, cis-2-[4-(3-Cyanobenzenesulphonyl)-3,5-dimethylpiperazin-1-yl]-N-(2-methylphenyl)acetamide]
236 to 238 °C	CC(=O)Nc1cccc(S(=O)(=O)N2[C@H](C)CN(CC(=O)Nc3ccccc3C)C[C@@H]2C)c1 [Example 62, cis-2-[4-(3-Acetylaminobenzenesulphonyl)-3,5-dimethylpiperazin-1-yl]-N-(2-methylphenyl)acetamide]
154 to 155 °C	C[C@@H]1CN(CC(=O)Nc2ccccc2C(F)(F)F)C[C@H](C)N1c1ncnc2sccc12 [Example 12, cis-2-(3,5-Dimethyl-4-(thieno[2,3-d]pyrimidin-4-yl)piperazin-1-yl]-N-(2-trifluoromethylphenyl)acetamide]
